Earlier results as cited in patent US20120071320A1, “LIQUID AGRICULTURAL FORMULATIONS OF IMPROVED STABILITY” (priority 2010, published 2012).

Conditions: aqueous buffer solutions, both acidic and basic conditions

COC(=O)c1sccc1S(=O)(=O)NC(=O)Nc1nc(C)nc(OC)n1 [thifensulfuron methyl]
hydrolysis rate: relatively fast
